Test results published in patent US20240361338A1, “DIAGNOSIS AND TREATMENT OF ECTOPIC ENDOMETRIOSIS” (FERRING B.V., priority 2021, published 2024).

Tests used:
[1] = test system: D2 mRNA expression in ectopic EMSCs; test: Real Time PCR of D2 mRNA expression after quinagolide treatment; assay type: cell-based, human; conditions: ectopic lines, 48 h of 100 nM quinagolide, vs untreated
Source text: FIG. 2: Effect of quinagolide on D2 expression in eutopic and ectopic EMSCs. A: Western blot analysis showing the presence of D2 in […] different passages, and in sorted SUSD2^+ E-MSCs. B: Real Time PCR analysis showing the relative quantification (RQ) of D2 mRNA expression by eutopic and ectopic EMSCs. Data are represented as mean±SD of three different eutopic or ectopic (ovarian and peritoneal) lines and normalized to GAPDH and to eutopic […]: Real Time PCR analysis showing D2 mRNA expression after 48 h of 100 nM quinagolide treatment (Q100) by eutopic and ectopic EMSCs. Data are represented as mean±SD of three different eutopic or ectopic (ovarian and peritoneal) lines and normalized to GAPDH and to untreated […] was performed: *=P<0.05 vs CTL. Trizol Reagent (Ambion) was used to isolate total RNA of different cell preparations, according to the manufacturer's protocol. RNA was then quantified spectrophotometrically using Nanodrop ND-1000. Quantitative real-time PCR was performed for gene expression analysis. Briefly, using the HighCapacity cDNA Reverse Transcription Kit (Applied Biosystems), first-strand cDNA was produced from 200 ng of total RNA. […] Fold change expression respect to control was calculated for all samples.

HUVECs = test: BrdU cell proliferation assay on HUVECs; assay type: cell-based, human; conditions: after 24 hours of quinagolide treatment, 10^-5 and 10^-7 M
Method: FIG. 3: Quinagolide effect on EMSCs apoptosis and proliferation. A: Quinagolide concentration-response curve on ectopic EMSCs in both apoptosis (N=1) and proliferation (N=2) assays. B: Effect of two selected quinagolide doses (10^−5 and 10^−7M) on HUVECs (N=1) and ectopic E-MSCs (N=3) apoptosis and proliferation assays (N=2). Data are represented as mean±SD of the indicated number of experiments and normalized to untreated cells (Control). Cells were plated in growth medium at a concentration of 2,500 HUVECs/well and 3,000 E-MSCs/well in a 96-multiwell plate. The day after quinagolide was added to the growth medium at different concentrations after 24 hours. Deoxyribonucleic acid synthesis was detected as incorporation of 5-bromo-2-deoxyuridine (BrdU) into the cellular DNA after 48 hours from cell plaiting, using an enzyme-linked assay kit (Chemicon). Untreated cells were used as control. Data are expressed as the mean±standard deviation (SD) of the media of absorbance of at least three different experiments and normalized to control.

[2] = test system: experimentally induced endometriosis; conditions: Akyol et al., 2016; cited from earlier work
ectopic E-MSCs = test: Endothelial differentiation (CD31) of ectopic E-MSCs in co-culture with HUVECs; assay type: cell-based, human; conditions: ectopic E-MSCs, 100 nM, 24-h treatment, 48 h co-culture with HUVECs
Method: FIG. 5: Quinagolide effect on EMSCs endothelial differentiation. A. FACS gating-strategy for the analysis of CD31^+ EMSCs after direct 48 h co-culture with HUVECs. EMSCs are gated as GFP negative population, and CD31 expression is evaluated on the described gated EMSCs after 48 h co-culture with HUVECs as percentage of CD31 APC positive events. B, C and D: Representative flow cytometry micrographs and quantification, expressed as percentage of variation respect to control co-culture, of the effect of 24 h treatment of EMSCs with 25 μM cabergoline, 1 μM sorafenib, 1 μM cabozantinib (B), 100 nM quinagolide (C) and the combination of 5 μM spiperone and 100 nM quinagolide (D) on EMSCs CD31 expression after 48 h of co-culture with HUVECs. Data are represented as mean±SD of at least three independent experiments, performed on different ectopic EMSC lines, and normalized to untreated co-culture. One-way ANova was performed: *=p<0.05 and ***=p<0.001 vs control.
(BSA)-Phosphate Buffered Saline (PBS) (Sigma). For each staining, 100,000 cells were incubated for 20 minutes at 4° C. with FITC, APC or PE-conjugated antibodies against: CD29, CD44, CD73, CD90 (BD Bioscences, Franklin Lakes, NJ, USA); CD31, CD34, CD105, CD140b, CD146, TEK receptor tyrosine kinase (Tie2), Sushi domain-containing protein 2 (SUSD2) (Miltenyi Biotech, Bergisch Gladbach, Germany); CD45 (AbD Serotec, Raleigh, NC, USA), or epithelial cell adhesion molecule (EPCAM) (BioLegend, San Diego, CA, USA). Labelled cells were washed by centrifugation and final pellet was resuspended in 200 μl of 0.1% BSA-PBS before cytofluorimetric analysis. Isotype (Miltenyi Biotec) was used as negative control.
Quinagolide powder (provided by Ferring Pharmaceuticals) was stored at 4° C. and resuspended in dimethylsulphoxide (DMSO) to a stock solution of 1 mM immediately before use. Spiperone powder (Sigma-Aldrich) was resuspended in water to a stock concentration of 1 mM and stored at −20° C. Cabergoline powder (Sigma-Aldrich) was dissolved in DMSO to a stock concentration of 25 mM and stored at −20° C. Sorafenib and cabozantinib (Sigma-Aldrich) were resuspended in DMSO to a final concentration of 10 mM and according to the manufacturer's instructions, and stored at −20° C. and −80° C., respectively. Quinagolide, spiperone and cabergoline were diluted 1:100 (final concentration 100 nM), 1:1000 (final concentration 5 μM) and 1:1000 (final concentration 25 μM) respectively. Quinagolide, cabergoline, sorafenib and cabozantinib and were administered for 24 hours during co-culture experiments, while spiperone was added to culture medium 1 h before quinagolide treatment. For invasion assays, E-MSCs were treated with spiperone 1 h before the cell detachment and quinagolide was added only when cells were plated on Matrigel. […]

## CCCN1C[C@@H](NS(=O)(=O)N(CC)CC)C[C@@H]2Cc3c(O)cccc3C[C@H]21 [quinagolide, N,N-diethyl-N′-[(3S,4aS,10aR)-6-hydroxy-1-propyl-1,2,3,4,4a,5,10,10a-octahydrobenzo[g]quinolin-3-yl]sulfamide]
[1]
  D2 mRNA expression: reduced
HUVECs
  proliferation of HUVEC cells: did not show alteration
[2]
  outcome in experimentally induced endometriosis rat model: successfully tested
Ectopic E-MSCs
  percentage of CD31 expressing E-MSCs after co-culture: significantly reduced
